Experimental data as given in US10695324B2, “Treatment for wolfram syndrome and other endoplasmic reticulum stress disorders” (Washington University, priority 2014, dated 2020).
Ends that are not written are not given here. Peptide text beside a SMILES is read from it. * marks the point of attachment. Cbz = O=C(OCc1ccccc1)*

What was measured:
[1] = tested on: CAPNS1 protein in HEK293T cells ectopically expressing WFS2; test: CAPNS1 protein level after proteasome inhibition; assay type: cell-based; details: 2 μM
Procedure: To find out whether WFS2 regulates CAPNS1 stability through the ubiquitin-proteasome pathway, HEK293T cells ectopically expressing WFS2 were treated with a proteasome inhibitor, MG132 (2 μM), and then the CAPNS1 protein level was measured.

INS-1 823/13 cells = test: Small-scale screen for prevention of thapsigargin mediated cell death, caspase 3/7-Glo luminescence; assay type: cell-based, rat; details: pretreated 24 hours, then 2 nM thapsigargin overnight
Procedure: INS-1 823/13 cells were pretreated with DMSO or drugs for 24 hours the incubated in media containing 2 nM of thapsigargin (TG) overnight. Apoptosis was detected by caspase 3/7-Glo luminescence. […] These eight compounds were PARP Inhibitor, dantrolene sodium, NS398, rapamycin, pioglitazone, calpain inhibitor III, docosahexaenoic acid (DHA), and GLP-1 (FIG. 8A).

[2] = tested on: Neuro2a cells transfected with siRNA against WFS2; test: WFS2-knockdown mediated cell death, cleaved caspase 3 immunoblotting and Annexin V staining; assay type: cell-based, mouse; details: neuronal cell line; 100 μM for 12 hours, 36 hours post-transfection
Procedure: Flow cytometry analyses (FACS) were performed with LSRII Flow Cytometer (BD Biosciences, San Jose, Calif.) at the FACS core facility of Washington University School of Medicine Neural progenitor cells or NSC34 cells were plated in 24-well plates. After staining with Annexin V, cells were washed and resuspended in PBS. Cells were run using standard protocols, specifically Annexin V positive cell (i.e., apoptotic cells). The results were analyzed by FlowJo ver.7.6.3 (Ashland, Oreg.).
(§1) Neuro2a and MIN6 cells were transfected with siRNA against WFS2 or a control scrambled siRNA (Cont.). After 36 hours post-transfection, cells were untreated or treated with 100 μM calpeptin for 12 hours. Cleaved caspase 3 and actin levels were assessed by immunoblotting (FIG. 5A, left panel). Quantified levels of cleaved caspase-3 are shown in FIG. 5A, right panel (n=3, *P<0.05). Additionally, early stage apoptosis was monitored by Annexin V staining followed by flow cytometry, FIG. 5C. INS-1 832/13 cells were transfected with scrambled siRNA and WFS2 siRNA. After 24 hours post-transfection, cells were untreated or treated with 5 μM calpeptin for 24 hours. Cleaved caspase-3, WFS2, and actin levels were monitored by immunoblotting (FIG. 5D, left panel) and quantified (FIG. 5D, right panel) (n=3, *P<0.05).

[3] = tested on: MIN6 cells transfected with siRNA against WFS2; test: WFS2-knockdown mediated cell death, cleaved caspase 3 immunoblotting; assay type: cell-based, rodent; details: β cell line; 100 μM for 12 hours, 36 hours post-transfection
Procedure: as §1

[4] = tested on: INS-1 832/13 cells transfected with WFS2 siRNA; test: WFS2-knockdown mediated cell death, cleaved caspase-3 immunoblotting; assay type: cell-based, rat; details: β cell line; 5 μM for 24 hours, 24 hours post-transfection
Procedure: as §1

INS-1 832/13 cells = test: Cytoplasmic calcium levels by Fura-2 calcium indicator; assay type: cell-based, rat; details: 10 μM for 24 hours
Procedure: (§2) First, the question of whether dantrolene could decrease cytoplasmic calcium levels was tested. […] and NSC34 cells were untreated or treated with 10 μM dantrolene for 24 hours. Cytoplasmic calcium levels were measured by Fura-2 calcium indicator over a period of 5 minutes. Thapsigargin (1 μM) was added at time 0. […] Next, it was necessary to determine if dantrolene could restore cytosolic calcium levels in WFS1-deficient cells.

NSC34 cells = test: as above; assay type: cell-based; details: 10 μM for 24 hours
Procedure: as §2

[5] = tested on: WFS1 silenced INS-1 832/13 cells; test: Protection of WFS1 silenced cells, immunoblotting of cleaved caspase-3 and cleaved spectrin; assay type: cell-based, rat; details: 10 μM for 48 hours
Procedure: In order to determine whether dantrolene conferred protection in WFS1 deficient cells and WFS1 silenced INS-1 832/13 cells were treated with dantrolene. INS-1 832/13 cells were transfected with scrambled siRNA or siRNA directed against WFS1. Cells were untreated or treated with 10 μM dantrolene for 48 hours, then incubated in media containing 0.5 μM thapsigargin for 6 hours. Expression levels of cleaved caspase-3 under untreated and thapsigargin treated conditions (FIG. 9A, left panel) were quantified and shown in FIG. 9A, center and right panels (n=3, *P<0.05). Protein levels of cleaved spectrin, WFS1, and GAPDH were analyzed by immunoblotting (FIG. 9B, left panel) and quantified (FIG. 9B, right panel) (n=3, *P<0.05). […]

[6] = tested on: WFS1-knockdown NSC34 cells; test: Protection of WFS1-knockdown cells, immunoblotting of cleaved caspase-3 and cleaved spectrin; assay type: cell-based; details: 10 μM for 24 hours
Procedure: NSC34 cells were transfected with scrambled siRNA or siRNA directed against WFS1, then untreated or treated with 10 μM dantrolene for 24 hours.

[7] = tested on: INS-1 832/13 cells transfected with WFS2 siRNA; test: Cell death mediated by WFS2 knockdown, cleaved caspase-3 immunoblotting; assay type: cell-based, rat; details: 10 μM for 24 hours, 24 hours post transfection
Procedure: (§3) In to determine if danotrolene affects ER calcium homeostasis, cells were treated with ryanodine or dantrolene. INS-1 832/13 cells were transfected with scrambled siRNA or WRFS1 siRNA. After 24 hours post-transfection, cells were untreated or treated with 2 μM ryanodine for 24 hours. Cleaved caspase-3, WFS1, and GAPDH levels were monitored by immunoblotting (FIG. 10A, left panel) and quantified ([…], right panel). INS-1 832/13 cells (FIG. 10B) and NSC34 cells (FIG. 10C) were transfected with scrambled siRNA or WRFS2 siRNA. After 24 hours post transfection, cells were untreated or treated with 10 μM dantrolene for 24 hours. Cleaved caspase-3, WFS2, and GAPDH levels were monitored by immunoblotting.

[8] = tested on: NSC34 cells transfected with WFS2 siRNA; test: as above; assay type: cell-based; details: 10 μM for 24 hours, 24 hours post transfection
Procedure: as §3

[9] = cited from earlier work
[10] = tested on: ER-localized ryanodine receptors; details: previous studies; cited from earlier work
INS1E cells = test: ER stress- and cytokine-induced β cell death, caspase 3/7 activity assay; details: 100 nM
Excerpt: A Caspase 3/7 assay (Promega, Madison, Wis.) was utilized to measure caspase-3 and -7 activities in various cell lines. The assay provides a proluminescent caspase-3/7 substrate, which contains the tetrapeptide sequence DEVD. This caspase-3/7 substrate can be added directly to cell lysates. The substrate is cleaved to release a aminoluciferin, which is a substrate for luciferase used in the production of light. The signal is proportional to caspase-3/7 activity.

[11] = tested on: neural progenitor cells derived from iPS cells of a Wolfram syndrome subject; test: Thapsigargin-induced cell death in patient neural progenitor cells, cleaved caspase-3 immunoblotting; details: pretreated 10 μM for 48 hours, then 0.125 μM thapsigargin for 20 hours
Excerpt: To generate iPS cells, fibroblasts were obtained from non-affected controls and subjects with Wolfram syndrome. […] To generate neural progenitor cells, iPSCs were counted and plated ˜50,000 per well in a 96-well plate to form uniform embryoid bodies. After 5 days, embryoid bodies were suspended in neural induction media and replated as adherent cultures. Fresh media was applied every day for 7 days. Neural rosettes formed in these cultures were selected and plated. Plated rosettes were fed with neural induction media every day for 4-7 days to obtain neural progenitor cells.
Wolfram patient neural progenitor cells were pretreated with or without 10 μM dantrolene for 48 hours.

[12] = tested on: INS-1 832/13 cells expressing D1ER; test: ER calcium monitoring with D1ER (FRET/CFP ratio, FACS); assay type: cell-based, rat; details: various concentrations, dose-dependent manner
Excerpt: A β cell line was developed to monitor ER calcium levels under various conditions. The ER-localized calcium sensor D1ER was modified to contain two fluorescent proteins, CFP and YFP, which were inserted onto the N- and C-terminus, respectively. INS-1 832/13 cells were transfected with the modified D1ER calcium sensor. When Ca^2+ binds to the calmodulin, an intramolecular rearrangement occurs and brings CFP and YFP into close proximity resulting in a fluorescence resonance energy transfer (FRET) from CFP to YFP. The FRET signal allows ratiometric measurements of free ER Ca^2+ and changes in Ca^2+ using FRET/CFP ratio.
INS-1 832/13 cells that stably express D1ER were treated with digitonin and ethylene glycol tetraacetic acid (EGTA) which causes the minimum value of FRET/CFP ratio, FIG. 10F. Additionally, cells treated with digitonin and CaCl2 led to the maximum value of FRET/CFP ratio, FIG. 10F.
FRET/CFP ratio was decreased in INS-1 832/13 cells treated with thapsigargin in a dose-dependent manner (FIG. 10G). Additionally, the rates of ER calcium-depleted cells increased in cells treated with thapsigargin in a dose-dependent manner (FIG. 10G).

[13] = tested on: ER stress-mediated cell death; details: have been shown (references); cited from earlier work
[14] = thapsigargin 1 μM added at time 0, Fura-2 over 5 minutes

## CC(C)C[C@@H](C=O)NC(=O)[C@H](CC(C)C)NC(=O)[C@H](CC(C)C)NC(=O)OCc1ccccc1 [MG132] (Cbz-Leu-Leu-Leu-aldehyde)
[1]
  CAPNS1 protein level: stabilized CAPNS1 protein

## CS(=O)(=O)Nc1ccc([N+](=O)[O-])cc1OC1CCCCC1 [NS398]
INS-1 823/13 cells; 10 μM (Table 3)
  suppression of thapsigargin mediated cell death (apoptosis by caspase 3/7-Glo luminescence): significantly suppress thapsigargin mediated cell death

## CC(C)[C@H](NC(=O)OCc1ccccc1)C(=O)N[C@H](C=O)Cc1ccccc1 [calpain inhibitor III] (Cbz-Val-Phe-aldehyde)
INS-1 823/13 cells; 1 μM (Table 3)
  suppression of thapsigargin mediated cell death (apoptosis by caspase 3/7-Glo luminescence): significantly suppress thapsigargin mediated cell death

## CCCC[C@@H](C=O)NC(=O)[C@H](CC(C)C)NC(=O)OCc1ccccc1 [calpeptin]
[2]
  WFS2-knockdown mediated cell death: prevented WFS2-knockdown mediated cell death
[3]
  WFS2-knockdown mediated cell death: prevented WFS2-knockdown mediated cell death
[4]
  WFS2-knockdown mediated cell death: prevented WFS2-knockdown mediated cell death

## O=C1CN(/N=C/c2ccc(-c3ccc([N+](=O)[O-])cc3)o2)C(O)=N1 [dantrolene, 1-[[5-(4-nitrophenyl)-2-furyl]methylideneamino]imidazolidine-2,4-dione]
INS-1 823/13 cells; 10 μM (Table 3)
  suppression of thapsigargin mediated cell death (apoptosis by caspase 3/7-Glo luminescence): significantly suppress thapsigargin mediated cell death
INS-1 832/13 cells; [14]
  cytosolic calcium levels: decreased cytosolic calcium levels
INS-1 832/13 cells; WFS1-knockdown INS-1 832/13 cells
  cytosolic calcium levels in WFS1-knockdown cells: restored cytosolic calcium levels
NSC34 cells; [14]
  cytosolic calcium levels: decreased cytosolic calcium levels
NSC34 cells; WFS1-knockdown NSC34 cells
  cytosolic calcium levels in WFS1-knockdown cells: restored cytosolic calcium levels
[5]; then 0.5 μM thapsigargin for 6 hours
  calpain activity (cleaved spectrin): suppression of apoptosis and calpain activity
[5]; then 0.5 μM thapsigargin for 6 hours or untreated
  apoptosis (cleaved caspase-3): suppression of apoptosis
[6]
  calpain activation (cleaved spectrin): prevented calpain activation
  cell death (cleaved caspase-3): prevented calpain activation and cell death
[7]
  cell death mediated by WFS2 knockdown: did not block cell death mediated by WFS2 knockdown
[8]
  cell death mediated by WFS2 knockdown: did not block cell death mediated by WFS2 knockdown
[9]
  solubility in water: poorly soluble in water
[10]
  leakage of calcium from the ER to the cytosol: suppresses leakage of calcium from the ER to the cytosol
INS1E cells; inflammatory cytokine 50 ng/mL
  cytokine induced β cell death: prevented
INS1E cells; thapsigargin 10 nM for 24 hours
  thapsigargin-induced β cell death: prevented
[11]
  thapsigargin-induced cell death (cleaved caspase-3): could prevent cell death

## C/C=C(/C)C(=O)O[C@H]1C(C)=C2[C@H]([C@@H]1OC(=O)CCCCCCC)[C@@](C)(OC(C)=O)C[C@H](OC(=O)CCC)[C@@]1(O)[C@H]2OC(=O)[C@@]1(C)O [thapsigargin]
[12]
  FRET/CFP ratio (ER calcium): decreased
  rates of ER calcium-depleted cells: increased

## GLP-1: Glucagon-like peptide-1; FDA approved drug (HAEGTFTSDVSSYLEGQAAKEFIAWLVKGR; ends and bridges not checked; UniProt P01275 98-127, looked up)
INS-1 823/13 cells; 50 nM (Table 3)
  suppression of thapsigargin mediated cell death (apoptosis by caspase 3/7-Glo luminescence): significantly suppress thapsigargin mediated cell death
[13]
  protection against ER stress-mediated cell death: confer protection against ER stress-mediated cell death
